Assay results reported in a melting point compilation (Tetko et al.; mined from patent text by program, amines drawn as free bases though some values may be those of a salt).

SMILES | melting point [°C]
CCCc1c(OCCCOc2ccccc2)ccc2c1OC(CCC(=O)OC)(CCC(=O)OC)CC2=O | 100
O=C(O)[C@H](Cc1ccccc1)NC(=S)Cc1ccc([N+](=O)[O-])cc1 | 149 to 150
COC(=O)[C@@H](Cc1ccccc1)NC(=O)[C@@H](Cc1c[nH]c2ccccc12)NC(=O)OCc1ccccc1 | 130 to 131
O=C1c2cc(S(=O)(=O)N3CCOCC3)ccc2SC12CC2 | 162 to 165
O=C(CCCN1CCC(c2ccccc2)(c2ccccc2)CC1)c1ccc(F)cc1 | 107 to 108
CN(C)C(=O)c1ccc(-c2ccc(N)cc2)cc1 | 184 to 186
O=C(c1ccc(-c2ccccc2)cc1)N1CCc2cn[nH]c2-c2ncccc21 | 205 to 206
O=C(c1ccc(Br)cc1)c1ccc(N2CCOCC2)cc1 | 178 to 179
CCC(CC)c1ccc(Cl)c2nc3n(c12)CCN3c1ccc(Cl)cc1Br | 169 to 171
O=c1[nH]c(=O)n(C2OC(CBr)C(O)C2O)cc1C=CBr (stereo unspecified) | 201
Fc1ccc(CC(c2ccccc2)C(F)(F)F)cc1 (stereo unspecified) | 143 to 145
CCCOCCOc1ccc(OCC(O)CNCCNC(=O)N2CCOCC2)cc1 (stereo unspecified) | 88
O=C(O)Cc1cccc2c(=O)cc(-c3ccccc3F)oc12 | 179 to 181
CC(C)C1C(=O)N(CC(=O)O)C(c2ccccc2)=CN1C(=O)c1cccnc1 (racemic) | 230 to 240
Cn1ccnc1SCC(=O)C12CC3CC(CC(C3)C1)C2 | 65 to 69
CC(O)(C#Cc1ccc(S(=O)(=O)c2ccncc2)cc1)C(F)(F)F (stereo unspecified) | 122 to 125
Nc1c(Cl)cc(-c2ccccc2)cc1Cl | 112 to 113
CC(=O)SC(CC(=O)c1ccc(C)cc1)C(=O)O (stereo unspecified) | 81 to 85
NC(N)=Nc1nc(-c2csc(CNC(=O)CO)n2)cs1 | 239
CCCOc1ccc(S(C)(=O)=O)cc1-c1nc(OC)c2[nH]nc(CC)c2n1 | 137 to 139
O=C(CC1CCCCC1)c1ccccc1 | 61 to 67
COC(=O)c1ccc2c(Br)cccc2c1 | 65 to 68
CCOC(=O)c1c(CCc2ccc(OC)cc2)nc2c(c1-c1ccc(C(=O)NCc3ccco3)cc1)C(=O)N1CCC[C@H]21 | 136
CCOC(=O)c1c(-c2ccc(-c3ccccn3)cc2)n(C)n(-c2ccc(C#N)cc2)c1=O | 205 to 211

SMILES | melting point [°C]
COc1ccc(C2=NN(C3CCN(S(=O)(=O)CCNCC(O)c4ccc(O)c(CO)c4)CC3)C(=O)[C@@H]3CC=CC[C@H]23)cc1OC (stereo partly specified) | 97 to 99
CC(C)n1nc(CS(C)=O)cc1O (stereo unspecified) | 69
Cc1cc(C)c(S(=O)(=O)NC(CNc2ccccc2)C(F)(F)F)c(C)c1 (stereo unspecified) | 82 to 86
CSCCCn1c(C)nc2c(N)nc3ccccc3c21 | 199 to 202
Cc1nc2n(c1CC#N)CCCC2OCc1ccccc1 (stereo unspecified) | 132 to 134
CCOC(=O)c1cnc2cc(OCc3ccccc3)c(OCc3ccccc3)cn2c1=O | 175
C=Cc1cc(O)cc2nc(-c3ccc(O)cc3F)oc12 | 274 to 275
COCOc1ccc(-n2cc(C(=O)O)c(=O)cc2-c2ccc(N(C)C)cc2)cc1 | 150 to 152
BrCc1ccc2nc(-c3ccccc3)c(-c3ccccc3)nc2c1 | 146 to 148
CCCCCCOc1ccc2[nH]c(SC(C)(C(=O)O)c3ccccc3)cc2c1 (stereo unspecified) | 100 to 102
Cc1nnc(COc2cccc(NC(=O)N(C)C)c2)o1 | 102 to 105
Cc1ccc2c(C3CN4CCC3CC4)c(C)[nH]c2c1 (stereo unspecified) | 237 to 238
COCCOC(=O)C1Oc2ccccc2Cc2ccccc2O1 | 74 to 76
O=C(NCCO)c1cccc(-c2cccc3oc(Cc4cccc(C(F)(F)F)c4)nc23)c1 | 132 to 133
CC(=O)CCC(=O)Nc1cc(CO)cc(Nc2c3ccccc3nc3ccccc23)c1 | 197 to 199
CC(O)c1ccc(C2CCCCC2)cc1 (stereo unspecified) | 81.5 to 82.5
COCOc1cc2c(cc1-c1cc(-c3ccc(C(=O)O)cc3)ccc1-c1ccccc1)C(C)(C)CCC2(C)C | 90 to 94
Cc1cnc(N2CCN(CC[C@H]3CC[C@H](NC(=O)CC4CCOCC4)CC3)CC2)c2c1OCC2 | 199
COc1ccc(Cc2cc(C(C)(C)C)cc(C(C)(C)C)c2O)cc1 | 84 to 85
CCCCNC(=O)Nc1ncc2cc(-c3c(Cl)cccc3Cl)c(NC(=O)NCCCC)nc2n1 | 200 to 202
O=P(O)(O)C1(P(=O)(O)O)CCCCCN1 | 275
CCCCCCCCCCCCCCCCCC(=O)CC(=O)OC | 52 to 54
CC(=O)OC1CC(COC(=O)c2ccccc2)OC1n1cc(F)c(=O)[nH]c1=O (stereo unspecified) | 68 to 70
COc1ccc(N2CCCCN(CCCCNC(=O)c3ccc(NC(=O)c4ccc(Cl)cc4)cc3)CC2)c(OC)c1 | 229

SMILES | melting point [°C]
Cc1c(SCCCN2CCNCC2)ccnc1CNc1cnc2ccccc2c1 | 105 to 108
CCCCCCCCCCCCCCCCSC(N)C(CN)C(=O)OC(C)(C)C (stereo unspecified) | 46 to 47
Cc1cnc2c(Br)cnn2c1-c1cccnc1 | 166 to 168
CS(=O)CC(=O)c1cc(-c2ccccc2)on1 (stereo unspecified) | 164 to 166
CCc1cccc(NC(=O)NC2CC(C3CCCCC3)c3ccccc3N(CC(=O)NC(C)(C)C)C2=O)c1 (stereo unspecified) | 145 to 155
[N-]=[N+]=NC1CCc2ccccc2N(c2ccccc2)C1=O (stereo unspecified) | 141 to 143
CCc1ccc(C(=O)O)c(O)n1 | 190 to 193
O=[N+]([O-])c1ccccc1NOS(=O)(=O)c1ccccc1 | 140
O[C@@H]1[C@H](O)CS[C@H]1n1cnc2c(NCc3ccccc3Cl)nc(Cl)nc21 | 199 to 200
CC(C)(C)OC(=O)CC[C@@H](NC(=O)OCc1ccccc1)C(N)=O | 138 to 140
Clc1ncc(Cl)c(NC2CCCCC2)n1 | 93 to 94
COC(=O)Nc1cc(-c2ccc(S(C)(=O)=O)cc2)n(-c2ccc(F)cc2)n1 | 225 to 227
CON1CCC2(CC1)C(=O)C(c1c(C)ccc(Cl)c1C)([N+](=O)[O-])C(=O)N2OC (stereo unspecified) | 94 to 97
CN1CCN(c2nn(S(=O)(=O)c3ccccc3)c3ccc(Cl)cc23)CC1 | 145 to 147
CC(C)(C)OC(=O)NN[C@@H]1c2cc(C#N)ccc2OC(C)(C)[C@H]1O (relative stereo) | 136 to 138
Fc1ccc(-c2nc3ccccn3c2-c2ccnc(-c3ccc(CN4CCCC4)cc3)c2)cc1F | 155
Nc1cc(=O)n(Cc2ccccc2F)[nH]1 | 146
CCOC(=O)/C=C/c1c(-c2ccc(F)cc2)n(CCF)c(=O)c2ccccc12 | 136 to 137
CCc1[nH]n(C2CCCC2)c2nc(CN3CCc4ccccc4C3)nc(=O)c1-2 | 149 to 151
Cc1cc(C)c(C2C(=O)OC3(CCN(N(C)C)CC3)C2=O)c(C)c1 (stereo unspecified) | > 200
Cc1c(CCN(C(=O)C(F)(F)F)c2cc3ccccc3n2C)ncn1S(=O)(=O)N(C)C | 156 to 158
CC(=O)Nc1cccc(-c2ccc3nnn(Cc4ccc5ncccc5c4)c3n2)c1 | 198 to 201
COc1ccc(C(=O)c2ccc3cc(OC)ccc3c2)c(F)c1 | 120 to 122
